Patent publication US20100120715A1, “BETA-LACTAMASE INHIBITORS” (priority 2007, published 2010)
Where two headings read alike, the source gives them in different places.

How the values were obtained:
[1] = system: K. pneumoniae expressing the Class A ESBL CTX-M-15; assay: microbe, parasite or virus in culture; type: cell-based; conditions: for MIC of example compound, K. pneumoniae CTX-M-15 + 8 μg/mL CAZ: in the presence of fixed 8 μg/mL Ceftazidime
[2] = system: E. coli expressing the Class A ESBL SHV-5; assay: microbe, parasite or virus in culture; type: cell-based; conditions: for MIC of example compound, E. coli SHV-5 + 8 μg/mL CAZ: in the presence of fixed 8 μg/mL Ceftazidime
[3] = system: E. cloacae expressing the Class C P99+ AmpC; assay: microbe, parasite or virus in culture; type: cell-based; conditions: for MIC of example compound, E. cloacae P99 AmpC + 8 μg/mL CAZ: in the presence of fixed 8 μg/mL Ceftazidime
Outline: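 Broth microdilution potentiation assay in cation-adjusted Mueller Hinton broth: compound was titrated 8 to 0.015 μg/mL final against a fixed 8 μg/ml cephalosporin. Strains were pre-grown 3-5 h with 50 μg/mL ampicillin and inoculated per CLSI. MIC was read visually after 16-20 h at 37° C.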

Class A ESBL CTXM-15 = target: T1, Class A ESBL CTXM-15 (Escherichia coli, UniProt Q9EXV5); assay: β-lactamase enzyme inhibition (nitrocefin hydrolysis), CTXM-15; type: biochemical; conditions: purified enzyme; nitrocefin 100 μM, PBS pH 7.0; read-out: CTXM-15 IC50 Range
T1 construct: made in house; host or cells: E. coli BL21(DE3)
Outline: (§1)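 Native untagged enzymes were expressed in E. coli BL21(DE3) and purified by cation exchange and gel filtration. Compound series (100–0.005 μM in PBS pH 7.0, before addition of an equal enzyme volume) were preincubated with enzyme 10 min at 37°C. Nitrocefin (100 μM final) hydrolysis was read kinetically at 486 nm for 10 min, and IC50 was taken as 50% reduction of initial rate versus no-inhibitor wells.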

Class A ESBL SHV-5 = target: T2, Class A ESBL SHV-5 (Klebsiella pneumoniae, UniProt P0A3M1); type: biochemical, E. coli; conditions: nitrocefin 100 μM, PBS pH 7.0, read-out: SHV-5 IC50 Range
T2 construct: made in house; host or cells: E. coli BL21(DE3) for purified enzyme; E. coli cells containing SHV-5 for extracts

[4] = target: T3, Class A carbapenemase KPC-2 (Klebsiella pneumoniae, UniProt Q9F663); assay: β-lactamase enzyme inhibition (nitrocefin hydrolysis), KPC-2; type: biochemical; conditions: purified enzyme; nitrocefin 100 μM, PBS pH 7.0; read-out: KPC-2 IC50 Range
T3 construct: made in house; host or cells: E. coli BL21(DE3)
Outline: as §1

Class C P99 AmpC = target: T4, Class C P99 AmpC (Enterobacter cloacae, UniProt P05364); type: biochemical; conditions: purified enzyme; nitrocefin 100 μM, PBS pH 7.0; read-out: P99 AmpC IC50 Range
T4 construct: made in house; host or cells: E. coli BL21(DE3)
Outline: as §1

[5] = system: K. pneumoniae expressing the Class A carbapenemase KPC-2; assay: microbe, parasite or virus in culture; conditions: for MIC of example compound, K. pneumoniae KPC-2 + 8 μg/mL CAZ: in the presence of fixed 8 μg/mL Ceftazidime
[6] = cellular extracts of E. coli containing SHV-5 (Examples 2-30)
[7] = purified beta-lactamase enzyme (Examples 1 and 31-64)
[8] = Klebsiella pneumoniae, read-out: MIC alone

T1 sequence (Q9EXV5 entry or part of it): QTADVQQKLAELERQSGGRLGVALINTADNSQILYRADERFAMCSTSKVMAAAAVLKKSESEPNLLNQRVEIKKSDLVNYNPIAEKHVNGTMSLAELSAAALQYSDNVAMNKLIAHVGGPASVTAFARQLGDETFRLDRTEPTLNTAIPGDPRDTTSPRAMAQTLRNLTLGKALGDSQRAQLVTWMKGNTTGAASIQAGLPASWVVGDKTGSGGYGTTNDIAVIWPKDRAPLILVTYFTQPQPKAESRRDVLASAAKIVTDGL
T2 sequence (P0A3M1 22-286): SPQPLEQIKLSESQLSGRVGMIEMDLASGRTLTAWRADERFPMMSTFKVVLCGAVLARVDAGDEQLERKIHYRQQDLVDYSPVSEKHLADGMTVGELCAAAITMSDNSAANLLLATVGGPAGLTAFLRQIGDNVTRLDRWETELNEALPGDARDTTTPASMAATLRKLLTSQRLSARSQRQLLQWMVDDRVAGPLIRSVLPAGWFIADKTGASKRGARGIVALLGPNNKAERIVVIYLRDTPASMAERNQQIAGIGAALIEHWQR
T4 sequence (P05364 21-381): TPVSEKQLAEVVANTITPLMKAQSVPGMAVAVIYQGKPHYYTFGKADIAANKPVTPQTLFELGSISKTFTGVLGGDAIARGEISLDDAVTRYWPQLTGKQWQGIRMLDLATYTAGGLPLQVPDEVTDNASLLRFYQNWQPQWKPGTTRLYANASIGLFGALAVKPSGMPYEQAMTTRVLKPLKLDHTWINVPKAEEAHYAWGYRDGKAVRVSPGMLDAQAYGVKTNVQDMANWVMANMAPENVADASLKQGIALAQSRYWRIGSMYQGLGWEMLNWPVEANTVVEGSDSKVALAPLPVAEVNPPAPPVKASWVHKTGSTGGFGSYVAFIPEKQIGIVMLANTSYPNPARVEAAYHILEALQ
T3 sequence (Q9F663 25-293 limits assumed): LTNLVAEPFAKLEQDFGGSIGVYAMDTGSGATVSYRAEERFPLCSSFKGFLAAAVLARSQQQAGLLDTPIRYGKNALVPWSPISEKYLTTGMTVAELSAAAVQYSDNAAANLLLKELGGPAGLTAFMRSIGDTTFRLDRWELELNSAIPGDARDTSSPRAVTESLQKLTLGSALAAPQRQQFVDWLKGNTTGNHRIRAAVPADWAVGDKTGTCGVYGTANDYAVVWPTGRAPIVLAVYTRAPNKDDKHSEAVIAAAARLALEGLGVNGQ

SMILES | MIC of example compound, K. pneumoniae CTX-M-15 + 8 μg/mL CAZ [1] | MIC of example compound, E. coli SHV-5 + 8 μg/mL CAZ [2] | MIC of example compound, E. cloacae P99 AmpC + 8 μg/mL CAZ [3] | IC50 (Class A ESBL CTXM-15) | IC50 (Class A ESBL SHV-5; [6]) | IC50 [4] | IC50 (Class C P99 AmpC) | MIC of example compound, K. pneumoniae KPC-2 + 8 μg/mL CAZ [5] | IC50 (Class A ESBL SHV-5; [7]) | MIC [5, 8] | MIC [1, 8] | MIC ([2]; Escherichia coli, read-out: MIC alone) | MIC ([3]; Enterobacter cloacae, read-out: MIC alone)
COc1ccc(OC)c(CC(=O)N[C@@H](Cc2cccc(C(=O)O)c2O)B(O)O)c1 [Example 17, (1R)-1-(2-(2,5-dimethoxyphenyl)-acetylamino)-2-(2-hydroxy-3-carboxyphenyl)ethyl-1-boronic acid] | C (C represents an MIC of <1 μg/mL) | A (A represents an MIC >8 μg/mL) | C (C represents an MIC of <1 μg/mL) | < 10 nM | < 10 nM | < 10 nM | < 10 nM |  |  |  |  |  | 
Cl.NCCOc1cccc(CC(=O)N[C@@H](Cc2cccc(C(=O)O)c2O)B(O)O)c1 [Example 4, (1R)-1-[3-(2-amino)-ethoxy-phenyl]acetylamino-1-(3-carboxy-2-hydroxy)benzyl-methylboronic acid hydrochloride] | C (C represents an MIC of <1 μg/mL) | C (C represents an MIC of <1 μg/mL) | C (C represents an MIC of <1 μg/mL) | < 10 nM | < 10 nM |  | < 10 nM | C (C represents an MIC of <1 μg/mL) |  |  |  |  | 
CCCCC(=O)N[C@@H](Cc1cccc(C(=O)O)c1O)B(O)O [Example 23, (1R)-1-(pentanoylamino)-2-(2-hydroxy-3-carboxyphenyl)ethyl-1-boronic acid] | C (C represents an MIC of <1 μg/mL) | C (C represents an MIC of <1 μg/mL) | C (C represents an MIC of <1 μg/mL) | < 10 nM | 10 to 100 nM | < 10 nM | 10 to 100 nM | C (C represents an MIC of <1 μg/mL) |  |  |  |  | 
O=C(O)c1cccc(C[C@H](NC(=O)C2CC2)B(O)O)c1O [Example 20, (1R)-1-Cyclopropanecarbonyl-amino-1-(3-carboxy-2-hydroxy)benzyl-methylboronic acid] | C (C represents an MIC of <1 μg/mL) |  | C (C represents an MIC of <1 μg/mL) | < 10 nM | 100 to 1000 nM | 10 to 100 nM | < 10 nM | C (C represents an MIC of <1 μg/mL) |  |  |  |  | 
NCC(=O)N[C@@H](Cc1cccc(C(=O)O)c1O)B(O)O.O=CO [Example 41, (1R)-1-(2-aminoacetylamino)-2-(2-hydroxy-3-carboxyphenyl)ethyl-1-boronic acid formate salt] | A (A represents an MIC >8 μg/mL) | A (A represents an MIC >8 μg/mL) | A (A represents an MIC >8 μg/mL) | 100 to 1000 nM |  | 10 to 100 nM | > 1000 nM | C (C represents an MIC of <1 μg/mL) | > 1000 nM |  |  |  | 
O=C(N[C@@H](Cc1cccc(C(=O)O)c1O)B(O)O)c1ccno1 [Example 46, (1R)-1-(isoxazole-5-carbonyl-amino)-2-(2-hydroxy-3-carboxyphenyl)ethyl-1-boronic acid] | C (C represents an MIC of <1 μg/mL) |  | C (C represents an MIC of <1 μg/mL) | < 10 nM |  | 10 to 100 nM | < 10 nM | C (C represents an MIC of <1 μg/mL) | < 10 nM |  |  |  | 
CC(=O)N1CCC(C(=O)N[C@@H](Cc2cccc(C(=O)O)c2O)B(O)O)CC1 [Example 49, (1R)-1-(1-Acetyl-piperidine-4-carbonyl)-amino-1-(3-carboxy-2-hydroxy)benzyl-methylboronic acid] | C (C represents an MIC of <1 μg/mL) |  | C (C represents an MIC of <1 μg/mL) | 10 to 100 nM |  | < 10 nM | 10 to 100 nM | C (C represents an MIC of <1 μg/mL) | 100 to 1000 nM |  |  |  | 
CC(=O)NCC(=O)N[C@@H](Cc1cccc(C(=O)O)c1O)B(O)O [Example 37, (1R)-1-(2-acetamidoacetylamino)-2-(2-hydroxy-3-carboxyphenyl)ethyl-1-boronic acid] | C (C represents an MIC of <1 μg/mL) |  | C (C represents an MIC of <1 μg/mL) | 10 to 100 nM |  | 10 to 100 nM | 10 to 100 nM | C (C represents an MIC of <1 μg/mL) | 10 to 100 nM |  |  |  | 
Cl.O=C(Cc1ccncc1)N[C@@H](Cc1cccc(C(=O)O)c1O)B(O)O [Example 52, (1R)-1-(4-Pyridylacetylamino)-2-(2-hydroxy-3-carboxyphenyl)ethyl-1-boronic acid hydrochloride] | C (C represents an MIC of <1 μg/mL) | C (C represents an MIC of <1 μg/mL) | C (C represents an MIC of <1 μg/mL) | < 10 nM |  | < 10 nM | < 10 nM | C (C represents an MIC of <1 μg/mL) | < 10 nM |  |  |  | 
O=C(Cc1ccccc1)N[C@@H](Cc1cccc(C(=O)O)c1O)B(O)O [Example 10, (1R)-1-(2-phenylacetylamino)-2-(2-hydroxy-3-carboxyphenyl)ethyl-1-boronic acid] | C (C represents an MIC of <1 μg/mL) | C (C represents an MIC of <1 μg/mL) | C (C represents an MIC of <1 μg/mL) | < 10 nM | < 10 nM |  | < 10 nM | C (C represents an MIC of <1 μg/mL) |  |  |  |  | 
O=C(N[C@@H](Cc1cccc(C(=O)O)c1O)B(O)O)c1cn2ccsc2n1 [Example 56, (1R)-1-(Imidazo[2,1-b]thiazole-6-carbonyl-amino)-2-(2-hydroxy-3-carboxyphenyl)ethyl-1-boronic acid] | A (A represents an MIC >8 μg/mL) | A (A represents an MIC >8 μg/mL) | A (A represents an MIC >8 μg/mL) | 10 to 100 nM |  | 100 to 1000 nM | 100 to 1000 nM |  | 10 to 100 nM |  |  |  | 
Nc1nc(CC(=O)N[C@@H](Cc2cccc(C(=O)O)c2O)B(O)O)cs1.O=CO [Example 39, (1R)-1-(2-Amino-thiazol-4-yl)-acetylamino-1-(3-carboxy-2-hydroxy)benzyl-methylboronic acid formate salt] | C (C represents an MIC of <1 μg/mL) | C (C represents an MIC of <1 μg/mL) | C (C represents an MIC of <1 μg/mL) | < 10 nM |  | 100 to 1000 nM | < 10 nM | C (C represents an MIC of <1 μg/mL) | < 10 nM |  |  |  | 
O=C(N[C@@H](Cc1cccc(C(=O)O)c1O)B(O)O)c1ccc(F)cc1 [Example 26, (1R)-1-(4-Fluorobenzoylamino)-(3-carboxy-2-hydroxy)benzyl-methylboronic acid] | C (C represents an MIC of <1 μg/mL) |  | C (C represents an MIC of <1 μg/mL) | < 10 nM | 10 to 100 nM | < 10 nM | < 10 nM | C (C represents an MIC of <1 μg/mL) |  |  |  |  | 
O=C(N[C@@H](Cc1cccc(C(=O)O)c1O)B(O)O)c1cnc2ccccc2n1 [Example 54, (1R)-1-(Quinoxaline-2-carbonyl-amino)-2-(2-hydroxy-3-carboxyphenyl)ethyl-1-boronic acid] | A (A represents an MIC >8 μg/mL) | A (A represents an MIC >8 μg/mL) | A (A represents an MIC >8 μg/mL) | < 10 nM |  | < 10 nM | < 10 nM |  | 10 to 100 nM |  |  |  | 
CC(C)(O/N=C(\C(=O)N[C@@H]1C(=O)N2C(C(=O)[O-])=C(C[n+]3ccccc3)CS[C@H]12)c1csc(N)n1)C(=O)O [Ceftazidime, reference compound] |  |  |  |  |  |  |  |  |  | 32 µg/mL | 128 µg/mL | > 1020 µg/mL | 128 µg/mL
